Series [1] has as its system MCF-7 breast cancer cells. Description: DIMSCAN cytotoxicity assay, MCF-7. Format: cell-based. Particulars: MCF-7, fatty acid 5 micromolar. The text has this:
(§1) Cell culture. The pre-T acute lymphoblastic leukemia cell lines MOLT-4 and CCRF-CEM, small cell lung cancer cell line NCI-H146, non-small cell lung cancer cell line NCI-H1792, colon cancer cell lines LoVo and HT-29, and breast cancer cell line MCF-7, were purchased from American Type Culture Collection, Manassas, Va., and grown at 20%/5% and 5%/5%, respectively. COG-LL-317 and COG-LL-332 pre-T acute lymphoblastic leukemia cell lines were obtained from the TTUHSC Cancer Center Cell Repository and grown at 5%/5%. Cell line identities were verified by short tandem repeat analysis and mycoplasma testing was performed. Cell lines were maintained in RPMI-1640 medium supplemented with 10% fetal bovine serum (FBS, Invitrogen) in humidified, 37° C. incubators. For all experiments, ALL cell lines were seeded at […] in RPMI-1640 medium supplemented with 15% fetal bovine serum. Solid tumor cell lines were plated at 5×cells/mL in RPMI-1640 medium supplemented with 10% fetal bovine serum.
(§2) Cytotoxicity Assay. Cytoxicity is determined using the DIMSCAN assay system (R. Proffitt et al., Cytometry 24, 204-213 (1996); T. Frgala et al., Proc. AACR, 36, 303 (1995). The system employs digital imaging microscopy to quantify viable cells, which selectively accumulate fluorescein diacetate to become brightly fluorescent. The system is capable of measuring cytotoxicity over a 4-5 log dynamic range by quenching the residual fluorescence of dead and dying cells with eosin Y and quantifying the total fluorescence of viable cells using digital thresholding. Measured fluorescence is directly proportionate to the number of viable cells. A comparison of the total fluorescence of a drug-treated cell population to the fluorescence of a similar number of untreated cells yields a survival fraction.
(§3) In brief, 5,000 to 25,000 cells/well depending on the cell line (5,000 for solid tumor, 25,000 for ALL cell lines) were replicate plated into 60 wells of a 96-well tissue culture plate in 0.1 cc media and allowed to attach or recover overnight. […]

Series [2] concerns NCI-H1792 non-small cell lung cancer cells. Nature of the series: DIMSCAN cytotoxicity assay, NCI-H1792. It is filed as cell-based. To be noted: NCI-H1792, fatty acid 5 micromolar.
Description: as §1, §2, §3

The test system of a further series is reactive oxygen species. Nature of the series: Reactive oxygen species generation. Format: cell-based, human. Particulars: C22:0-fatty acid with sphinganine plus GT-11.

The source of these data is patent publication US20120121691A1, “Method for Increasing the Production of a Specific ACYL-Chain Dihydroceramide(s) for Improving the Effectiveness of Cancer Treatments” (priority 2010, published 2012).

`CCCCCCCCCCCCCCCCCCCCCC(=O)O` [C22:0-fatty acid]: the “effect of fatty acid on fenretinide cytotoxicity” value in series [1] and in series [2] was “increased fenretinide cytotoxicity” throughout. In the series with reactive oxygen species, the “increase of reactive oxygen species” value is listed as “not observed”.
